Results taken from patent US8609718B2, “Pharmaceutical composition used in treatment of hyperproliferative skin conditions and malignant melanomas comprising pachastrissamine as active ingredient” (Catholic University Industry Academy Cooperation Foundation, priority 2009, dated 2013).

Tests used:
HaCaT cell line [1] = test: Cell counting by hemocytometer, trypan blue exclusion, HaCaT; assay type: cell-based, human
Method: A HaCaT cell line was cultured in the same manner as described in Example 1. The cultured HaCaT cell line was plated onto a 60 mm plate at a concentration of 5×10^4 cells/well, and cultured in a CO2 incubator (37° C., 5%) for 24 hours. The cultured cells in respective plates were treated with pachastrissamine at a concentration of 10 μg/ml, and cultured in a CO2 incubator (37° C., 5%) for 24, 36, and 48 hours, respectively. After the culturing, the cells were washed with PBS, treated with trypsin-EDTA, and completely detached from the plate. Then, a hemocytometer was used to count the cells through trypan blue exclusion.
HaCaT, B16F10 and A375 cell lines were cultured in the same manner as described in Example 1. The cultured HaCaT cell line was plated onto a 60 mm plate at a concentration of 5×10^4 cells/well, and cultured in a CO2 incubator (37° C., 5%) for 24 hours. The cultured respective cells were divided into 4 groups. One group was added with only pachastrissamine (PA) at a concentration of 10 μg/ml; another group was added with lithium chloride (apoptosis inhibiting material) (at a final concentration of 300 nM) as well as pachastrissamine at a concentration of 10 μg/ml (PA+Li); and a third group was added with only lithium chloride (Li). The last group was a negative control group (Con) and was added with nothing. These groups were cultured in a CO2 incubator (37° C., 5%) for 24 hours, and then the number of cells were measured in the same manner as described in Example 2-2.

HaCaT cell line [2] = test: TUNEL analysis of apoptosis; assay type: cell-based, human; conditions: 10 μg/ml, 24 hours, control: only a limited part, FIG. 2E
Method: A HaCaT cell line was cultured in the same manner as described in Example 1. The cultured HaCaT cell line was plated onto a 60 mm plate at a concentration of 5×10^4 cells/well, and cultured in a CO2 incubator (37° C., 5%) for 24 hours. The cultured cells were treated with pachastrissamine at a concentration of 10 μg/ml, cultured in a CO2 incubator (37° C., 5%) for 24 hours, and subjected to TUNEL analysis.
In order to carry out TUNEL analysis based on ApopTagFluorescein In Situ Apoptosis Detection Kit (Millipore), cells were cultured in a cover slip, and washed with PBS (pH 7.4). In order to completely fix cells, the cells were reacted in a PBS solution including 4% paraformaldehyde at room temperature for 30 minutes. Then, in order to make the cells permeable, the cells were washed with a PBS solution, and reacted in a PBS solution including 0.1% Triton X-100 at room temperature for 5 minutes. For cell marking, the cells were washed with PBS twice, and then diluted TUNEL reaction mixture was added to the cover slip. After incubating in a humidified chamber at 37° C. for 60 minutes, the cover slip was washed. The washed cover slip was reacted with a DAPI solution at room temperature for about 10 minutes, washed with PBS, mounted on a slide, sufficiently dried in a dark place, and analyzed by a fluorescent microscope. […]

p-FoxO3a (Ser 253) = test: Western blotting of p-FoxO3a (Ser 253); assay type: cell-based; conditions: HaCaT, A375, B16F10, 10 μg/ml, FIGS. 4B, 4C
Method: In the same manner as described in Example 4-1, a HaCaT cell line and malignant melanoma cell lines (A375 and B16F10) were treated with pachastrissamine and phytosphingosine at a concentration of 10 μg/ml for 30 minutes and 60 minutes, respectively. Then, western blotting was carried out using p-FoxO3a (Ser 253) antibody.

ERK and FoxO3a = test: Immunoprecipitation of ERK, binding between ERK and FoxO3a; assay type: cell-based, human; conditions: HaCaT; 10 μg/ml; 24 hours; anti-ERK immunoprecipitation; FIG. 4F
Method: In the same manner, a HaCaT cell line was treated with pachastrissamine, and immunoprecipitation was used to determine the degree of binding between ERK and FoxO3a, and the degree of FoxO3a ubiquitination caused by interaction. In order to carry out immunoprecipitation, the cells were plated on a 100 mm plate, and cultured in a CO2 incubator (37° C., 5%) for 24 hours. After about 12 hours of serum starvation, the cultured cell line was treated with 10 μg/ml of pachastrissamine for 24 hours. The cell line treated with pachastrissamine and another cell line not treated with pachastrissamine were resuspended in the RIPA buffer as described above, and then put on ice for 30 minutes so that the cells could be completely lysed. The lysate was centrifuged at 14000 rpm for 30 minutes, and the supernatant was collected. A BCA protein analysis kit (Pierce, Rockford, Ill.) was used to determine the concentration of each sample, and the samples in the same amount were added with anti-ERK antibody in the same amount, and reacted at 4° C. for 2 hours. Then, each of the samples was added with 10 μl of protein G-agarose (GenDEPOT) and reacted at 4° C. for 10 hours, and then centrifuged at 3000 rpm for 1 minute, washed with RIPA buffer, and centrifuged again. Then, the precipitated protein G-agarose was collected, and electrophoresis was carried out.

FoxO3a = FoxO3a immunoprecipitation and ubiquitin western blotting in HEK293T; assay type: cell-based; conditions: pachastrissamine and EGF
Method: Then, immunoprecipitation was carried out using FoxO3a antibody. The sample obtained from immunoprecipitation was subjected to western blotting by using ubiquitin antibody so as to carry out comparative analysis.

GSK3-beta / beta-catenin = test: Western blotting of pGSK3-beta, GSK3-beta, pCatenin and Catenin in HaCaT; assay type: cell-based, human; conditions: 30 minutes, FIG. 5A
Method: The pachastrissamine's effect on beta-catenin protein expression was researched. In the same manner as described in Example 1, a HaCaT cell line was cultured.

beta-catenin = test: Beta-catenin protein in malignant melanoma cell line (FIG. 5B); assay type: cell-based
[3] = pachastrissamine 10 μg/ml, LiCl 300 nM

degree of binding between ERK and FoxO3a (ERK and FoxO3a): significantly decreased
SMILES: CCCCCCCCCCCCCC[C@@H]1OC[C@H](N)[C@@H]1O [pachastrissamine]
number of cells over culturing time (cell proliferation) (HaCaT cell line [1]; 10 μg/ml, 24, 36 and 48 hours, control group increased, FIG. 2b): the number of cells decreased | number of cells compared to no treatment (HaCaT cell line [1]; 10 μg/ml, 24 hours, FIGS. 2C, 2D): the number of cells was decreased | number of cells with lithium chloride as well as pachastrissamine, compared to only pachastrissamine (HaCaT cell line [1]; pachastrissamine 10 μg/ml + lithium chloride 300 nM (PA+Li), 24 hours): the number of cells was higher | apoptosis (TUNEL positive) among observed cell nuclei (DAPI stained) (HaCaT cell line [2]): most of observed cell nuclei showed apoptosis | amount of expressed p-FoxO3a after 30 minutes (p-FoxO3a (Ser 253); 30 minutes): reduced | expression of p-FoxO3a after 60 minutes (p-FoxO3a (Ser 253); 60 minutes): increased an expression of p-FoxO3a | ubiquitination degree of FoxO3a increased by EGF (FoxO3a): decreased | beta-catenin protein degradation (GSK3-beta / beta-catenin; 10 μg/ml): induced the degradation of beta-catenin protein | phosphorylation of GSK3-beta (GSK3-beta / beta-catenin; [3]): phosphorylation of GSK3-beta was inhibited | phosphorylation of beta-catenin (GSK3-beta / beta-catenin; [3]): increasing the phosphorylation of beta-catenin | beta-catenin protein degradation in malignant melanoma cell line (beta-catenin): can induce the degradation of beta-catenin protein
